Experiments:
[1] = target: D(3) dopamine receptor (Homo sapiens, UniProt P35462)
[2] = target: 5-hydroxytryptamine receptor 1A (Homo sapiens, UniProt P08908)
[3] = target: 5-hydroxytryptamine receptor 2A (Homo sapiens, UniProt P28223)
[4] = target: Delta-type opioid receptor (Homo sapiens, UniProt P41143)
[5] = target: Substance-P receptor (Homo sapiens, UniProt P25103)
[6] = target: Kappa-type opioid receptor (Cavia porcellus, UniProt P41144)
[7] = target: Gastrin/cholecystokinin type B receptor (Homo sapiens, UniProt P32239)
Sequence of Gastrin/cholecystokinin type B receptor (Homo sapiens, UniProt P32239) (P32239 whole entry): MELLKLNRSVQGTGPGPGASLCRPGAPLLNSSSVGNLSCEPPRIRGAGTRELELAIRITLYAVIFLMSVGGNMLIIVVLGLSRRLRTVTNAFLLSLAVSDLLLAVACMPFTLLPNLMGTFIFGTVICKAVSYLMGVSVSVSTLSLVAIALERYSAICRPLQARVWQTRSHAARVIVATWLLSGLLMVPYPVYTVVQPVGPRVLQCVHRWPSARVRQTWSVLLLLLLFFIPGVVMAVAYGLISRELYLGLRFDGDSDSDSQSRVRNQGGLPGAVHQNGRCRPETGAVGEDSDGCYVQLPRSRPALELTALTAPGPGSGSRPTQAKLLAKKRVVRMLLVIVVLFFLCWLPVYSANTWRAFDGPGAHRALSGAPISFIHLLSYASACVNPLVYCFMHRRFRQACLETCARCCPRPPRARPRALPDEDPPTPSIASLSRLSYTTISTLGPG

[8] = target: 5-hydroxytryptamine receptor 6 (Homo sapiens, UniProt P50406)
[9] = target: Mu-type opioid receptor (Homo sapiens, UniProt P35372)
[10] = target: Sodium-dependent dopamine transporter (Rattus norvegicus, UniProt P23977)
[11] = target: Histamine H1 receptor (Homo sapiens, UniProt P35367)
Sequence of Histamine H1 receptor (P35367 whole entry): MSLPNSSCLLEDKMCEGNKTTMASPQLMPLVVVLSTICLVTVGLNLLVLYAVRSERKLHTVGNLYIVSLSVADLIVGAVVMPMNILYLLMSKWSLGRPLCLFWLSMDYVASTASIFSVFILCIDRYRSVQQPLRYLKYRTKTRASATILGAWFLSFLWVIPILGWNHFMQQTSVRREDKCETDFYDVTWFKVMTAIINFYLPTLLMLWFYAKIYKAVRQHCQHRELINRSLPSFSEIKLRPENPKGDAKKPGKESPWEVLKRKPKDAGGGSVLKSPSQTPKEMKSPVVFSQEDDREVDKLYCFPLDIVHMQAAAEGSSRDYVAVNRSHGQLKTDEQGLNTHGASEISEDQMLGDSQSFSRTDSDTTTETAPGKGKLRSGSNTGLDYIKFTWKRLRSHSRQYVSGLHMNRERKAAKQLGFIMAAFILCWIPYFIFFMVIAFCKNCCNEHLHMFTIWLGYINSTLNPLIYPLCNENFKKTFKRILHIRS

[12] = target: Beta-3 adrenergic receptor (Homo sapiens, UniProt P13945)
[13] = target: 5-hydroxytryptamine receptor 1D (Homo sapiens, UniProt P28221)
[14] = target: 5-hydroxytryptamine receptor 7 (Homo sapiens, UniProt P34969)
[15] = target: 5-hydroxytryptamine receptor 1E (Homo sapiens, UniProt P28566)
[16] = target: D(4) dopamine receptor (Homo sapiens, UniProt P21917)
[17] = target: Beta-2 adrenergic receptor (Homo sapiens, UniProt P07550)
[18] = target: 5-hydroxytryptamine receptor 3A (Mus musculus, UniProt P23979)
[19] = target: Substance-K receptor (Homo sapiens, UniProt P21452)
Sequence of Substance-K receptor (P21452 whole entry): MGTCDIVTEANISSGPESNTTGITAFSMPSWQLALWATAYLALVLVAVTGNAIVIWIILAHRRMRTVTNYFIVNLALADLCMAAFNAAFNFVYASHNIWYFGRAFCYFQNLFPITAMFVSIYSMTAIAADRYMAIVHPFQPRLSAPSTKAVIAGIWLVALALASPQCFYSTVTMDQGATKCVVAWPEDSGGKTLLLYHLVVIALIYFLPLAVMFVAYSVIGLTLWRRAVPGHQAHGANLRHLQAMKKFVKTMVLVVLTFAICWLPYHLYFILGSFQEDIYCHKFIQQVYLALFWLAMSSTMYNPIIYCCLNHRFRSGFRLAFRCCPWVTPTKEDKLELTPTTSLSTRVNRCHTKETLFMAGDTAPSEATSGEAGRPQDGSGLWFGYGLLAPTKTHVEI

[20] = target: Neuromedin-K receptor (Homo sapiens, UniProt P29371)
[21] = target: Alpha-1A adrenergic receptor (Homo sapiens, UniProt P35348)
[22] = target: 5-hydroxytryptamine receptor 5A (Homo sapiens, UniProt P47898)
[23] = target: Alpha-2B adrenergic receptor (Homo sapiens, UniProt P18089)
[24] = target: Alpha-2C adrenergic receptor (Homo sapiens, UniProt P18825)
[25] = target: 5-hydroxytryptamine receptor 1F (Homo sapiens, UniProt P30939)
[26] = target: B2 bradykinin receptor (Homo sapiens, UniProt P30411)
[27] = target: Voltage-dependent L-type calcium channel subunit alpha-1C (Rattus norvegicus, UniProt P22002)
Sequence of Voltage-dependent L-type calcium channel subunit alpha-1C (P22002 whole entry): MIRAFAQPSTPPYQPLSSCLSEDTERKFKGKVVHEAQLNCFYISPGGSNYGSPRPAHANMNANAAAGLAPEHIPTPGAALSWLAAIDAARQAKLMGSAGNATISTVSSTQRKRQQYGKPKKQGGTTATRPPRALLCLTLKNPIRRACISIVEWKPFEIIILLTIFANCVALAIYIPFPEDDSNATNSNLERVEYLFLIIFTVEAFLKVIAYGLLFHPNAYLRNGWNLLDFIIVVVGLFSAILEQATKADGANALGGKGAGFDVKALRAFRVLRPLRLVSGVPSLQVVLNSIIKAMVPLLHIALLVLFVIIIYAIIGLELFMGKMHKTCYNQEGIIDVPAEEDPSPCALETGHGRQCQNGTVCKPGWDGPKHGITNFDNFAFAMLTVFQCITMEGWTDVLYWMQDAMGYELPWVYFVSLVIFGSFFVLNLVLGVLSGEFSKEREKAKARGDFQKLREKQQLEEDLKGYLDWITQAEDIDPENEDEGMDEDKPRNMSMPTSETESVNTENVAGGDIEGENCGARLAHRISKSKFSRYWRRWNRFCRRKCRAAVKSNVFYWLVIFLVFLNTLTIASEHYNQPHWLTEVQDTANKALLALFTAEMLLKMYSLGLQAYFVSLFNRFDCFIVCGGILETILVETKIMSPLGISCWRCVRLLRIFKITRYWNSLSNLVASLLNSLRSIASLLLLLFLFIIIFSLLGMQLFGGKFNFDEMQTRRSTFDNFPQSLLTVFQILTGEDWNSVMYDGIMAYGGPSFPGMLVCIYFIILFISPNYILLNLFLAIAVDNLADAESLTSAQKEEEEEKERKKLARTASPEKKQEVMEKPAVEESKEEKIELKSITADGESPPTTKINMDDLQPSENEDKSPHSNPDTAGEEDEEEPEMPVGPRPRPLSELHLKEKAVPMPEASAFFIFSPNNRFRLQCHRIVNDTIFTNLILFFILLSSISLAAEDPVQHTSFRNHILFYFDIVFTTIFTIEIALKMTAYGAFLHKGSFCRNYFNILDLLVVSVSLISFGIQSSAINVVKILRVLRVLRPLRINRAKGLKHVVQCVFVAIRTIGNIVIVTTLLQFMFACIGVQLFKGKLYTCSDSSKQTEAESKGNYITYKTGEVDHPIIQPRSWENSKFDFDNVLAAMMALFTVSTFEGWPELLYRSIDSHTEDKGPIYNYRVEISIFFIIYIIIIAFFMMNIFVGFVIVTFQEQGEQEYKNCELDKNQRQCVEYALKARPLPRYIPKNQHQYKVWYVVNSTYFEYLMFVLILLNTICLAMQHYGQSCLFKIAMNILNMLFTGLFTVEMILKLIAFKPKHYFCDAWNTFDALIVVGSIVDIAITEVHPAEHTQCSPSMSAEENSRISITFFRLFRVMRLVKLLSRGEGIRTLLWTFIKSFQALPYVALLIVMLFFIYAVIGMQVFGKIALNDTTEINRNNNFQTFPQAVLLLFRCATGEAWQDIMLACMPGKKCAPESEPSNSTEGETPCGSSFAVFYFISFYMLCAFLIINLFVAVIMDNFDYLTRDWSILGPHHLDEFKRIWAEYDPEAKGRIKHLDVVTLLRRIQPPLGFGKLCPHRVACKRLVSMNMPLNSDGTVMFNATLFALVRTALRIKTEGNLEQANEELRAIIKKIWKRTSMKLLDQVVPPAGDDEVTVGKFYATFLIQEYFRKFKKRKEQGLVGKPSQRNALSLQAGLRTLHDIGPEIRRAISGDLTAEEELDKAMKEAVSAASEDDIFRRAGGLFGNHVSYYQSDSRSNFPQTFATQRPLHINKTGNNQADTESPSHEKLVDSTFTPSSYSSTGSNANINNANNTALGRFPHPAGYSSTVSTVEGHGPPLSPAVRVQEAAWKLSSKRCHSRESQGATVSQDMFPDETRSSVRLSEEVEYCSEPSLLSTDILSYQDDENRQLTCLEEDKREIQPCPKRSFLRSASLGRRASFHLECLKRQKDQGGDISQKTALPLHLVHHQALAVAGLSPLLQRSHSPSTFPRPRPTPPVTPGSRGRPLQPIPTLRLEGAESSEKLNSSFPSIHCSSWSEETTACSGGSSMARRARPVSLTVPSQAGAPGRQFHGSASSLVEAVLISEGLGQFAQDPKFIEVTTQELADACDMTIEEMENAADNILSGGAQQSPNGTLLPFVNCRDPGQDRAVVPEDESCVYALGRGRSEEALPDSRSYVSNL

[28] = target: Gastrin/cholecystokinin type B receptor (Rattus norvegicus, UniProt P30553)
[29] = target: Glutamate receptor ionotropic, NMDA 1 (Rattus norvegicus, UniProt P35439)
[30] = target: Sodium- and chloride-dependent glycine transporter 1 (Rattus norvegicus, UniProt P28572)
[31] = target: Sodium- and chloride-dependent glycine transporter 2 (Homo sapiens, UniProt Q9Y345)
[32] = target: Cysteinyl leukotriene receptor 1 (Cavia porcellus, UniProt Q2NNR5)
Sequence of Cysteinyl leukotriene receptor 1 (Q2NNR5 whole entry): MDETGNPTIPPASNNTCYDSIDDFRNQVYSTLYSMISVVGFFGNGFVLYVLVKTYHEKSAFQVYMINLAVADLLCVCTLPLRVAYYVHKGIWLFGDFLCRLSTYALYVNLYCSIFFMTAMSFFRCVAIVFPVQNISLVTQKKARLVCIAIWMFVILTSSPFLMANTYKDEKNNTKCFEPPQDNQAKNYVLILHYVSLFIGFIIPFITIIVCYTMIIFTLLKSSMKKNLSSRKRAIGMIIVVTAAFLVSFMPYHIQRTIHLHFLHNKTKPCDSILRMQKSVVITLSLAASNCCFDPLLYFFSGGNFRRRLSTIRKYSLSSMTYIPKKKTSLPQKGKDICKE

[33] = target: Norepinephrine transporter (Rattus norvegicus, UniProt Q9JIA2)
[34] = target: Neurotensin (Cavia porcellus, UniProt P32560)
[35] = target: Vasoactive intestinal polypeptide receptor 1 (Homo sapiens, UniProt P32241)
Sequence of Vasoactive intestinal polypeptide receptor 1 (P32241 whole entry): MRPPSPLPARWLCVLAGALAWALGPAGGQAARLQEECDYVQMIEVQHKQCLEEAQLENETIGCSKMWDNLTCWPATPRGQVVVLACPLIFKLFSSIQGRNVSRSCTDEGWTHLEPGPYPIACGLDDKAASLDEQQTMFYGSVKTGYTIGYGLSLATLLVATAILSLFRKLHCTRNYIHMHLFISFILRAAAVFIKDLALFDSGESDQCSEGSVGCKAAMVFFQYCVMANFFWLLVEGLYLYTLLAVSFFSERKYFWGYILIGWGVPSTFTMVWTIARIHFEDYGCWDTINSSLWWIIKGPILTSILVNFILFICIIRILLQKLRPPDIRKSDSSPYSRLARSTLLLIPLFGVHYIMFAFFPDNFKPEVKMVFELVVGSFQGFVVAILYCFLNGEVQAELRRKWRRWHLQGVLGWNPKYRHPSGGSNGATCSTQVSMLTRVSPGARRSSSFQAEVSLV

[36] = target: Beta-1 adrenergic receptor (Homo sapiens, UniProt P08588)
[37] = target: 5-hydroxytryptamine receptor 2C (Homo sapiens, UniProt P28335)
[38] = target: Alpha-2A adrenergic receptor (Homo sapiens, UniProt P08913)
[39] = target: Thromboxane A2 receptor (Homo sapiens, UniProt P21731)
Sequence of Thromboxane A2 receptor (P21731 whole entry): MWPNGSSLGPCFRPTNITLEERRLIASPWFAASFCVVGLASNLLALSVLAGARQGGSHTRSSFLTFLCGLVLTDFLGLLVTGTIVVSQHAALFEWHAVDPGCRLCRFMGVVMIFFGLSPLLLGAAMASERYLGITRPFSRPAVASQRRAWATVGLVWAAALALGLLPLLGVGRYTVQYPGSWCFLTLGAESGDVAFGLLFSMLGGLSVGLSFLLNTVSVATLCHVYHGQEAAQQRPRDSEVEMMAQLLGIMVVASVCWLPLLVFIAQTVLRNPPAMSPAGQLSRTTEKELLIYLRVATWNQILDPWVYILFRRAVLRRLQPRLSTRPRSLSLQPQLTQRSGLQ

Sequence of Substance-P receptor (P25103 whole entry): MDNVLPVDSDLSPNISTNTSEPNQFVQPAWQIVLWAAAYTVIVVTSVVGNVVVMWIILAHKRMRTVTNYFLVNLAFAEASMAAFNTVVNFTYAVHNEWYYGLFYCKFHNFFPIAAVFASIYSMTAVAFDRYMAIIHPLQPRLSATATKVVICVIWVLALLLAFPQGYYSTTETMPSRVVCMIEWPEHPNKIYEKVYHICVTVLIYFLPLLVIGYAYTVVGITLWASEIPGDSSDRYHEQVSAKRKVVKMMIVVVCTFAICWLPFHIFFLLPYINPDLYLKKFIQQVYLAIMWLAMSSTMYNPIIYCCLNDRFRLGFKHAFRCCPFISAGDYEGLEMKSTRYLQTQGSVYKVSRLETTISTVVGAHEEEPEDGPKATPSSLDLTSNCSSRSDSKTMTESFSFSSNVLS

Work on `COCCCN1CCC(NC(=O)c2cc(Cl)c(N)c3c2OCC3)CC1` [4-Amino-5-chloro-2,3-dihydro-benzofuran-7-carboxylic acid [1-(3-methoxy-propyl)-piperidin-4-yl]-amide] yielded a Ki [1] greater than 10 µM, a Ki [2] greater than 10 µM and a Ki [3] greater than 10 µM. The Ki [4] was greater than 10 µM, the Ki [5] was greater than 10 µM and the Ki [6] was greater than 10 µM. The Ki [7] was greater than 10 µM, the Ki [8] was greater than 10 µM and the Ki [9] was greater than 10 µM. The Ki [10] was greater than 10 µM, the Ki [11] was greater than 10 µM and the Ki [12] was greater than 10 µM. It also gave a Ki [13] greater than 10 µM, a Ki [14] greater than 10 µM and a Ki [15] greater than 10 µM. It also gave a Ki [16] of 2.35 µM, a Ki [17] greater than 10 µM and a Ki [18] of 3.82 µM. The Ki [19] was greater than 10 µM, the Ki [20] was greater than 10 µM and the Ki [21] was greater than 10 µM. The Ki [22] was greater than 10 µM, the Ki [23] was greater than 10 µM and the Ki [24] was greater than 10 µM. It also gave a Ki [25] greater than 10 µM, a Ki [26] greater than 10 µM and a Ki [27] greater than 10 µM. The Ki [28] was greater than 10 µM, the Ki [29] was greater than 10 µM and the Ki [30] was greater than 10 µM. For the same compound, the Ki [31] was greater than 10 µM, the Ki [32] was greater than 10 µM and the Ki [33] was greater than 10 µM. For the same compound, the Ki [34] was greater than 10 µM, the Ki [35] was greater than 10 µM and the Ki [36] was greater than 10 µM. The Ki [37] was greater than 10 µM, the Ki [38] was greater than 10 µM and the Ki [39] was greater than 10 µM.

— BindingDB's records for doi:10.1016/s0014-2999(01)01087-1 (Janssen Research Foundation, 2001)
